ChEMBL document CHEMBL3045543, “Predictions and correlations of structure activity relationship of some aminoantipyrine derivatives on the basis of theoretical and experimental ground” (Med Chem Res, 2012)
Values after ≈ are worked out from the molar mass of the structure shown. One block for each molecule: values may come before it.

What was measured:
[1] = organism: Mus musculus; experiment: Toxicity in Mus musculus (mouse) assessed as irritation; assay type: organism-based; details: in vivo
[2] = test system: Pseudomonas aeruginosa; experiment: Antibacterial activity against Pseudomonas aeruginosa at 100 ug/ml by agar cup-plate method; assay type: functional; details: read-out: IZ
[3] = test system: Escherichia coli; experiment: Antibacterial activity against Escherichia coli at 100 ug/ml by agar cup-plate method; assay type: functional; details: read-out: IZ
[4] = test system: Pseudomonas; experiment: Antibacterial activity against […] at 100 ug/ml by agar cup-plate method; assay type: functional; details: read-out: IZ
[5] = test system: Staphylococcus aureus; experiment: Antibacterial activity against Staphylococcus aureus at 100 ug/ml by agar cup-plate method; assay type: functional; details: read-out: IZ
[6] = test system: Pseudomonas aeruginosa; experiment: Antibacterial activity against Pseudomonas aeruginosa after 24 hr by broth dilution method; assay type: functional
[7] = test system: Escherichia coli; experiment: Antibacterial activity against Escherichia coli after 24 hr by broth dilution method; assay type: functional
[8] = test system: Pseudomonas; experiment: Antibacterial activity against […] after 24 hr by broth dilution method; assay type: functional
[9] = test system: Staphylococcus aureus; experiment: Antibacterial activity against Staphylococcus aureus after 24 hr by broth dilution method; assay type: functional

SMILES: Cc1c(/N=C/c2ccccc2)c(=O)n(-c2ccccc2)n1C
- Activity [1]: Non-toxic
- zone of inhibition at 100 µg/mL [2]: < 5 mm
- zone of inhibition at 100 µg/mL [3]: < 5 mm
- zone of inhibition at 100 µg/mL [4]: 10 mm
- zone of inhibition at 100 µg/mL [5]: > 15 mm

SMILES: Cc1c(/N=C/c2ccc(Cl)cc2)c(=O)n(-c2ccccc2)n1C
- Activity [1]: Non-toxic
- zone of inhibition at 100 µg/mL [2]: 5 mm
- zone of inhibition at 100 µg/mL [3]: < 5 mm
- zone of inhibition at 100 µg/mL [4]: < 5 mm
- zone of inhibition at 100 µg/mL [5]: 10 mm

SMILES: Cc1c(/N=C/c2ccc(O)cc2)c(=O)n(-c2ccccc2)n1C
- Activity [1]: Non-toxic
- zone of inhibition at 100 µg/mL [2]: 5 mm
- zone of inhibition at 100 µg/mL [3]: 5 mm
- zone of inhibition at 100 µg/mL [4]: < 5 mm
- zone of inhibition at 100 µg/mL [5]: 10 mm

SMILES: COc1ccc(/C=N/c2c(C)n(C)n(-c3ccccc3)c2=O)cc1
- Activity [1]: Non-toxic
- zone of inhibition at 100 µg/mL [2]: < 5 mm
- zone of inhibition at 100 µg/mL [3]: 5 mm
- zone of inhibition at 100 µg/mL [4]: 10 mm
- zone of inhibition at 100 µg/mL [5]: 5 mm

SMILES: Cc1c(/N=C/c2cccc([N+](=O)[O-])c2)c(=O)n(-c2ccccc2)n1C
- Activity [1]: Non-toxic
- zone of inhibition at 100 µg/mL [2]: < 5 mm
- zone of inhibition at 100 µg/mL [3]: 5 mm
- zone of inhibition at 100 µg/mL [4]: < 5 mm
- zone of inhibition at 100 µg/mL [5]: 5 mm

- MIC [6]: 100 µg/mL (≈ 307 µM)
- MIC [7]: 100 µg/mL (≈ 307 µM)
- MIC [8]: 100 µg/mL (≈ 307 µM)
- MIC [9]: 75 µg/mL (≈ 230 µM)
SMILES: Cc1c(/N=C/c2ccccc2Cl)c(=O)n(-c2ccccc2)n1C
- Activity [1]: Non-toxic
- zone of inhibition at 100 µg/mL [2]: > 15 mm
- zone of inhibition at 100 µg/mL [3]: > 15 mm
- zone of inhibition at 100 µg/mL [4]: > 15 mm
- zone of inhibition at 100 µg/mL [5]: > 15 mm

- MIC [6]: 75 µg/mL (≈ 267 µM)
- MIC [7]: 75 µg/mL (≈ 267 µM)
- MIC [8]: 75 µg/mL (≈ 267 µM)
- MIC [9]: 50 µg/mL (≈ 178 µM)
SMILES: Cc1c(/N=C/c2ccco2)c(=O)n(-c2ccccc2)n1C
- Activity [1]: Non-toxic
- zone of inhibition at 100 µg/mL [2]: > 15 mm
- zone of inhibition at 100 µg/mL [3]: > 15 mm
- zone of inhibition at 100 µg/mL [4]: > 15 mm
- zone of inhibition at 100 µg/mL [5]: > 15 mm

- MIC [6]: 100 µg/mL (≈ 325 µM)
- MIC [7]: 75 µg/mL (≈ 244 µM)
- MIC [8]: 75 µg/mL (≈ 244 µM)
- MIC [9]: 50 µg/mL (≈ 163 µM)
SMILES: Cc1c(/N=C/c2ccccc2O)c(=O)n(-c2ccccc2)n1C
- Activity [1]: Non-toxic
- zone of inhibition at 100 µg/mL [2]: 10 mm
- zone of inhibition at 100 µg/mL [3]: > 15 mm
- zone of inhibition at 100 µg/mL [4]: > 15 mm
- zone of inhibition at 100 µg/mL [5]: > 15 mm

SMILES: Cc1c(/N=C/c2ccccc2[N+](=O)[O-])c(=O)n(-c2ccccc2)n1C
- Activity [1]: Non-toxic
- zone of inhibition at 100 µg/mL [2]: 5 mm
- zone of inhibition at 100 µg/mL [3]: < 5 mm
- zone of inhibition at 100 µg/mL [4]: < 5 mm
- zone of inhibition at 100 µg/mL [5]: 10 mm

SMILES: CC1(C)S[C@@H]2[C@H](NC(=O)[C@H](N)c3ccccc3)C(=O)N2[C@H]1C(=O)O [AMPICILLIN]
- Activity [1]: Non-toxic
- MIC [6]: 25 µg/mL (≈ 71.5 µM)
- MIC [7]: 25 µg/mL (≈ 71.5 µM)
- MIC [8]: 25 µg/mL (≈ 71.5 µM)
- MIC [9]: 25 µg/mL (≈ 71.5 µM)
- zone of inhibition at 100 µg/mL [2]: > 15 mm
- zone of inhibition at 100 µg/mL [3]: 10 mm
- zone of inhibition at 100 µg/mL [4]: 10 mm
- zone of inhibition at 100 µg/mL [5]: > 15 mm

SMILES: [H]/N=C(/N)N[C@H]1[C@H](O)[C@@H](O)[C@H](O[C@@H]2O[C@@H](C)[C@](O)(C=O)[C@H]2O[C@@H]2O[C@@H](CO)[C@H](O)[C@@H](O)[C@@H]2NC)[C@@H](N/C(N)=N\[H])[C@@H]1O [STREPTOMYCIN]
- Activity [1]: Non-toxic
- zone of inhibition at 100 µg/mL [2]: > 15 mm
- zone of inhibition at 100 µg/mL [3]: > 15 mm
- zone of inhibition at 100 µg/mL [4]: > 15 mm
- zone of inhibition at 100 µg/mL [5]: > 15 mm
